# From patent publication US20250199015A1, “CYCLIN-DEPENDENT KINASE 2 INHIBITORS FOR MEDICAL TREATMENT” (INCYCLIX BIO, LLC, priority 2022, published 2025)
# “And” between values parts separate entries of the source, which are not always exact repeats. Equal entries are not always repeated. Structures can show the parent of a compound that is named as a salt. Marks after values point to notes of the source that are not given here.
# How the values were obtained:
# [1] = Dynamic Vapor Sorption (DVS); format: physicochemical; settings: for DVS uptake, first sorption cycle / DVS uptake, second sorption cycle: 25° C., to 90% RH
# Experimental: Approximately 10-20 mg of sample was placed into a mesh vapor sorption balance pan and loaded into a DVS Advantage dynamic vapor sorption balance by Surface Measurement Systems. The sample was subjected to a ramping profile from 40-90% relative humidity (RH) at 10% increments, maintaining the sample at each step until a stable weight had been achieved (dm/dt 0.004%, minimum step length 30 minutes, maximum step length 500 minutes) at 25° C. After completion of the sorption cycle, the sample was dried using the same procedure to 0% RH and then a second sorption cycle back to 40% RH. Two cycles were performed. The weight change during the sorption/desorption cycles were plotted, allowing for the hygroscopic nature of the sample to be determined. XRPD analysis was then carried out on any solid retained.
# [2] = 7-day indicative stability (XRPD, HPLC purity); format: physicochemical; settings: for change in form after 7 days / purity change after 7 days: ambient
# Experimental: The stability of HCl Pattern 1 was determined using the following procedure. HCl Pattern 1 (30 mg) was weighed into 3×2 mL glass vials. The three vials were then stored under the following conditions for 7-days: • Ambient temperature, humidity and light (open vial); • 40° C./75% RH (open vial); • 80° C. (closed vial).
# After 7 days, each sample was analyzed by: XRPD to assess form changes and HPLC to determine the purity of the samples.
# After 7 days at each storage condition, the solids were analyzed by XRPD to assess any changes in solid form and by HPLC to determine purity.
# [3] = Thermodynamic solubility in pH 1, 4.5 and 6.8 buffers; format: physicochemical
# Experimental: The thermodynamic solubility of HCl Pattern 1 was determined in duplicate according to the following procedure. HCl Pattern 1 (20 mg) was weighed into 6×2 mL glass vials. Then, 1000 μL of pH 1 hydrochloride, pH 4.5 acetate and pH 6.8 phosphate buffers were added to individual vials in 100 μL aliquots to give white slurries at each pH value. […] The pH was re-recorded and adjusted where necessary. The samples were isolated by centrifuge filtration. […] The concentrations of the saturated solutions were determined by HPLC.
# Buffer systems were added in 250 μL aliquots up to a total volume of 1 mL. The pH of each slurry was recorded and adjustments were made to the pH 1 system. No initial adjustment was made to the pH 4.5 or 6.8 system. An aliquot of the slurry was analyzed by XRPD. […] The pH was checked and adjusted where required. The slurries were filtered by centrifugation. The solids were isolated and analyzed by XRPD. The solutions were analyzed by HPLC to determine concentration.
# [4] = Solvate formation or form change in ethanol (thermal cycling); format: physicochemical; settings: three days, 40° C./5° C.
# Experimental: HCl Pattern 1 was stirred in ethanol to assess any solvation or form change in the solvent system. The following procedure was carried out. HCl Pattern 1 (20 mg) was suspended in 1 mL of ethanol. The suspension was thermally cycled for three days according to the following cycle: • Heat to 40° C. at a rate of 0.1° C./min; • Hold at 40° C. for one hour; • Cool to 5° C. at a rate of 0.1° C./min; • Hold at 5° C. for one hour.
# After three days, observations were recorded, and solids were isolated by centrifugation. Wet solids were analyzed by XRPD.
# [5] = tested on: caspase 3/7 in Hs68 cells; assay: CaspaseGlo-3/7 in normal fibroblasts; format: cell-based; settings: 300 pM to 10 μM; 24, 48 or 72 hours
# Experimental: The Hs68 Normal foreskin fibroblast cell line was grown in DMEM-high glucose/1× Glutamax/10% fetal bovine serum and was plated at 1,000 cells/well in Corning 96 well white wall/clear bottom tissue culture treated plates. […] Plates were removed from incubator at each specified timepoint and treated with CaspaseGlo-3/7 (Promega, Inc) following manufacturer specifications. Plates were then read on Biotech luminometer with 1 sec/well integration. Results were converted to Microsoft Excel and transferred to GraphPad Prism for Analysis (FIG. 5A-C).
# [6] = tested on: caspase 3/7 in H526 cells; assay: CaspaseGlo-3/7 activation; format: cell-based, human
# Experimental: Plates were removed from incubator and treated with CaspaseGlo-3/7 (Promega, Inc) following manufacturer specifications. Plates were then read on a Biotech luminometer with 1 sec/well integration. Results were converted to Microsoft Excel and transferred to GraphPad Prism for Analysis (FIG. 22D).
# Plates were removed from the incubator at each specified timepoint and treated with CaspaseGlo-3/7 (Promega, Inc) following manufacturer specifications. Plates were then read on Biotech luminometer with 1 sec/well integration. Results were converted to Microsoft Excel and transferred to GraphPad Prism for Analysis (FIG. 27A-C).
# [7] = Salt screen storage at 40° C./75% RH, XRPD form; format: physicochemical; settings: after storage at 40° C./75% RH, scale up from ethyl acetate
# Experimental: XRPD analysis was carried out on any isolated solids or gums as described in Example 10 below. The XRPD plate, and the isolated solids, were dried at 40° C. for ca. 24 hours and re-analyzed by XRPD. The XRPD plate was further dried at 40° C./75% RH for ca. 24 hours and XRPD analysis was repeated.
# After three days, observations were recorded and solids were isolated by centrifugation. The wet solids were analyzed by XRPD. Solids were dried at 40° C. under vacuum for 72 hours and re-analyzed by XRPD. Solids were dried at 40° C./75% RH for 18 hours and re-analyzed by XRPD.
# [8] = Disproportionation study in water; format: physicochemical
# Experimental: A study disproportionation was carried out using the following procedure. […] The pH was recorded, and the suspension was stirred for ca. 24 hours at 25° C. After 24 hours the pH was recorded, and the slurry was filtered by centrifugation. The solids were isolated and analyzed by XRPD. The solution was isolated and analyzed by HPLC to determine concentration.
# [9] = Hydration study in ethanol:water mixtures; format: physicochemical; settings: 24 hours; for XRPD: solids from slurry
# Experimental: A hydration study was carried out on the material according to the following procedure. […] Ethanol: water solutions (Table 77) were added in 250 μL aliquots to a total volume of 1 mL. The slurries were stirred at 25° C. for 24 hours. After 24 hours the slurries were filtered by centrifugation. The solids were isolated and analyzed by XRPD. The solution was isolated and analyzed by HPLC to determine concentration.
# [10] = Thermodynamic solubility in pH 1, 4.5 and 6.8 buffers; format: physicochemical; settings: for Solubility: 25° C., 24 hours
# [11] = 7 days, 40° C./75% RH (open vial)
# [12] = 7 days, ambient temperature, humidity and light (open vial)
# [13] = pH 6.8 (Phosphate) buffer, 25° C., 24 hours
# [14] = residual solids, pH 1 (HCl) buffer, 25° C., 24 hours
smiles,measurement,setting,value
NS(=O)(=O)c1ccc(Nc2ncc3cc4n(c3n2)C2(CCCCC2)C(=O)NN4)cc1 [HCl Pattern 1],form post DVS by XRPD,[1],no observable form change had occurred
same,hygroscopicity (DVS),[1],moderately hygroscopic
same,"DVS uptake, first sorption cycle",[1],5.15%
same,"DVS uptake, second sorption cycle",[1],5.10%
same,HPLC Purity,[2]; [11],97.98 % w/w
same,Observation,[2]; [11],White Solid
same,XRPD,[2]; [11],HCl Pattern 1
same,HPLC Purity,"[2]; 7 days, 80° C. (closed vial)",96.97 % w/w
same,Observation,"[2]; 7 days, 80° C. (closed vial)",White Solid
same,XRPD,"[2]; 7 days, 80° C. (closed vial)",HCl Pattern 1
same,HPLC Purity,[2]; [12],98.02 % w/w
same,Observation,[2]; [12],Yellow Solid
same,XRPD,[2]; [12],HCl Pattern 1
same,change in form after 7 days,"[2]; 40° C./75% RH, 80° C.",no observable change in form
same,purity change after 7 days,"[2]; 40° C./75% RH, 80° C.",decrease in purity was noted for all samples
same,Solubility,"[3]; pH 1 (HCl) buffer, 25° C., 24 hours",2.7 µg/mL
same,solubility at 24 h,"[3]; pH 1 hydrochloride buffer, 25 °C, pH 1, simulated gastric fluid, thermodynamic from solid, pH 1 (HCl) buffer, 24 hours",3.8 µg/mL
same,Solubility,"[3]; pH 4.5 (Acetate) buffer, 25° C., 24 hours",<LOQ
same,residual solids by XRPD,"[3]; pH 4.5, 25° C., 24 hours",formation of free base
same,Solubility,[3]; [13],<LOQ
same,residual solids by XRPD,"[3]; pH 6.8, 25° C., 24 hours",formation of free base
same,XRPD,[3]; [14],1
same,form after thermal cycling in ethanol,[4],produced HCl Pattern 2
CN[C@@H]1C[C@H]2O[C@@](C)([C@@H]1OC)n1c3ccccc3c3c4c(c5c6ccccc6n2c5c31)C(=O)NC4 [staurosporine],caspase 3/7 activation,[5],substantial increase
same,caspase 3/7 activation,[6]; 24 hours,robust caspase 3/7 activation
same,IC50,"[6]; Homo sapiens, NCI-H526, 72 hours",6 nM
NS(=O)(=O)c1ccc(Nc2ncc3cc4n(c3n2)C2(CCCCC2)C(=O)NN4)cc1.O=P(O)(O)O [phosphate Pattern 7],XRPD,[7],Pattern 7*
same,form post DVS by XRPD,[1],no observable form change had occurred
same,hygroscopicity (DVS),[1],moderately hygroscopic
same,"DVS uptake, first sorption cycle",[1],4.76%
same,"DVS uptake, second sorption cycle",[1],5.18%
same,DVS Moisture Uptake at 80% RH,[1]; first sorption cycle,4.76 wt. %
same,XRPD,[1]; post DVS,Phosphate Pattern 7*
same,DVS Moisture Uptake at 80% RH,[1]; second sorption cycle,5.18 wt. %
same,HPLC Purity,"[2]; 7 Day Stability, 40° C./75% RH",89.63 % area
same,HPLC Purity,"[2]; 7 Day Stability, 80° C.",98.08 % area
same,HPLC Purity,"[2]; 7 Day Stability, Ambient, Light",97.90 % area
same,HPLC Purity,[2]; [11],89.63 % w/w
same,Observation,[2]; [11],Faint Pink Solid
same,XRPD,[2]; [11],Phosphate Pattern 7*
same,HPLC Purity,"[2]; 7 days, 80° C. (closed vial)",98.08 % w/w
same,Observation,"[2]; 7 days, 80° C. (closed vial)",White Solid
same,XRPD,"[2]; 7 days, 80° C. (closed vial)",Phosphate Pattern 7*
same,HPLC Purity,[2]; [12],97.87 % w/w
same,Observation,[2]; [12],Faint Yellow Solid
same,XRPD,[2]; [12],Phosphate Pattern 7*
same,change in form after 7 days,"[2]; 40° C./75% RH, 80° C.",no observable change in form
same,purity change after 7 days,"[2]; 40° C./75% RH, 80° C.",significant decrease in purity
same,XRPD,"[3]; 24 h Solubility at 37° C., pH 4.5, residual solids",Free Base Pattern 1
same,XRPD,"[3]; 24 h Solubility at 37° C., pH 6.8, residual solids",Free Base Pattern 1
same,thermodynamic solubility in three buffer systems,"[3]; pH 1, 4.5, 6.8",low aqueous solubility
same,residual solids by XRPD,"[3]; pH 1, 25° C., 24 hours",mixture of HCl Pattern 1 and free base
same,"24 h Solubility at 37° C., Concentration",[3]; pH 4.5,5.2 µg/mL
same,residual solids by XRPD,"[3]; pH 4.5, 25° C., 24 hours",dissociation to free base
same,"24 h Solubility at 37° C., Concentration",[3]; pH 6.8,4.2 µg/mL
same,Solubility,[3]; [13],4.2 µg/mL
same,residual solids by XRPD,"[3]; pH 6.8, 25° C., 24 hours",dissociation to free base
same,XRPD,[3]; [14],HCl Pattern 1
same,XRPD,"[3]; residual solids, pH 4.5 (Acetate) buffer, 25° C., 24 hours",Free base
same,XRPD,"[3]; residual solids, pH 6.8 (Phosphate) buffer, 25° C., 24 hours",Free base
same,form after stirring in water,"[8]; 25° C., ca. 24 hours",indicative of disproportionation
same,XRPD,"[8]; slurry at 25° C. in water, 24 hours",Free Base Pattern 10
same,form after stirring in ethanol:water mixtures,[9]; 25° C.,disproportionation of the salt to free base material
same,Solubility,"[9]; Ethanol:Water (63.6:36.4 % v/v), Calc Aw 0.745, 25° C.",987.8 µg/mL
same,Solubility,"[9]; Ethanol:Water (92.9:7.1 % v/v), Calc Aw 0.507, 25° C.",1664.8 µg/mL
same,Solubility,"[9]; Ethanol:Water (98.4:1.6 % v/v), Calc Aw 0.257, 25° C.",1217 µg/mL
same,XRPD,"[9]; Ethanol:Water (63.6:36.4), Aw 0.745, 25° C.",Free Base Pattern 2
same,XRPD,"[9]; Ethanol:Water (92.9:7.1), Aw 0.507, 25° C.",Free Base Pattern 3
same,XRPD,"[9]; Ethanol:Water (98.4:1.6), Aw 0.257, 25° C.",Free Base Pattern 3
same,XRPD,"[10]; 24 h Solubility at 37° C., pH 1.2, residual solids",HCl Pattern 1
same,Solubility,[10]; pH 1 (HCl) buffer,3.8 µg/mL and 2.7 µg/mL
same,Solubility,[10]; pH 4.5 (Acetate) buffer,5.8 µg/mL and 5.2 µg/mL
